The values that follow come from ChEMBL document CHEMBL1909590, “Design, synthesis and docking studies of new quinoline-3-carbohydrazide derivatives as antitubercular agents” (2011).

This assay has as its system Mycobacterium tuberculosis. Put plainly: Antimycobacterial activity against isoniazid, rifampicin and ethambuto-resistant Mycobacterium tuberculosis using compound level ranging from 0.3125 to 5 ug/mL after 7 days by resazurin reduction test. The note with it: 168 h. In kind it is functional. On the technique in general: Resazurin is reduced to fluorescent resorufin, in cell work by metabolically active cells.

Converted amounts (≈) assume the structure as drawn.

As to `COc1ccc(NC(=S)NNC(=O)c2cnc3c(C(F)(F)F)cccc3c2O)cc1`, the MIC is > 50 mg/L.

As for `CO[C@H]1/C=C/O[C@@]2(C)Oc3c(C)c(O)c4c(O)c(c(/C=N/N5CCN(C)CC5)c(O)c4c3C2=O)NC(=O)/C(C)=C\C=C\[C@H](C)[C@H](O)[C@@H](C)[C@@H](O)[C@@H](C)[C@H](OC(C)=O)[C@@H]1C` [RIFAMPIN], the MIC was found to be 25 mg/L (≈ 30.4 µM).

For `COc1ccc(NC(=O)NNC(=O)c2cnc3c(C(F)(F)F)cccc3c2O)cc1`, inhibition of growth (MIC) required 12.5 mg/L (≈ 29.7 µM). The same measure for `O=C(N/N=C/c1cc(F)ccc1O)c1cnc2c(C(F)(F)F)cccc2c1O`: > 50 mg/L; for `Cc1ccc(/C=N/NC(=O)c2cnc3c(C(F)(F)F)cccc3c2O)cc1`: > 50 mg/L; for `O=C(N/N=C/c1ccc(OC(F)(F)C(F)F)cc1)c1cnc2c(C(F)(F)F)cccc2c1O`: 25 mg/L (≈ 52.6 µM). The same measure for `O=C(N/N=C/c1cnc[nH]1)c1cnc2c(C(F)(F)F)cccc2c1O`: > 50 mg/L. Next, `COC(=O)Cc1cc(/C=N/NC(=O)c2cnc3c(C(F)(F)F)cccc3c2O)co1`: > 50 mg/L; `CCc1ccc(NC(=O)NNC(=O)c2cnc3c(C(F)(F)F)cccc3c2O)cc1`: > 50 mg/L; `O=C(NNC(=O)c1cnc2c(C(F)(F)F)cccc2c1O)Nc1cccc(Cl)c1`: 25 mg/L (≈ 58.9 µM). For `Cn1nnc2cc(/C=N\NC(=O)c3cnc4c(C(F)(F)F)cccc4c3O)ccc21`, the MIC is > 50 mg/L.

As to `Cc1cc(C)cc(NC(=O)NNC(=O)c2cnc3c(C(F)(F)F)cccc3c2O)c1`, the MIC was > 50 mg/L.

As for `COc1ccc(/C=N/NC(=O)c2cnc3c(C(F)(F)F)cccc3c2O)cc1O`, the MIC was > 50 mg/L. Next, `COc1ccc2[nH]cc(/C=N/NC(=O)c3cnc4c(C(F)(F)F)cccc4c3O)c2c1`: 6.25 mg/L (≈ 14.6 µM); `O=C(NNC(=S)Nc1cccc(Cl)c1)c1cnc2c(C(F)(F)F)cccc2c1O`: 25 mg/L (≈ 56.7 µM); `Cc1[nH]cnc1/C=N/NC(=O)c1cnc2c(C(F)(F)F)cccc2c1O`: > 50 mg/L. Next, `Cn1cccc1/C=N\NC(=O)c1cnc2c(C(F)(F)F)cccc2c1O`: 6.25 mg/L (≈ 17.3 µM); `NNC(=O)c1ccncc1` [ISONIAZID]: 12.5 mg/L (≈ 91.1 µM); `O=C(NNC(=S)Nc1ccccc1F)c1cnc2c(C(F)(F)F)cccc2c1O`: 12.5 mg/L (≈ 29.5 µM). The same measure for `COc1ccc(/C=N/NC(=O)c2cnc3c(C(F)(F)F)cccc3c2O)cc1`: 12.5 mg/L (≈ 32.1 µM). The compound `Cc1cccc2c(/C=N/NC(=O)c3cnc4c(C(F)(F)F)cccc4c3O)c[nH]c12` had an MIC of 6.25 mg/L (≈ 15.2 µM). In turn, `COc1ccc(/C=N/NC(=O)c2cnc3c(C(F)(F)F)cccc3c2O)c(F)c1` came in with a minimum inhibitory concentration (MIC) of 6.25 mg/L (≈ 15.3 µM). With `Cc1ccc(NC(=O)NNC(=O)c2cnc3c(C(F)(F)F)cccc3c2O)cc1`, the minimum inhibitory concentration (MIC) was 25 mg/L (≈ 61.8 µM).

One may read the MIC as the smallest concentration in the dilution series that meets the test's criterion for growth inhibition.
